Reference: patent publication US20090318424A1, “NOVEL COMPOUNDS” (priority 2006, published 2009)

test system: influx of neutrophils to the lung in LPS-challenged rats; test: Rat LPS neutrophilia model; assay type: in vivo; settings: LPS aerosol 100 ug/ml 15 min, lavage 4 hours later; in at least one of the range of conditions tested
Experimental: The effect of compounds on the influx of neutrophils to the lung in LPS-challenged rats is evaluated as follows. The test compound is suspended in one of the following solutions: 0.5% tween 80/PBS, 0.5% tween 80/saline, 10% EtOH/saline (with pH adjusted to 2.0, or 8.0 with HCl, or unadjusted), Saline @ pH 2.0, 6.5 or 8.0, 0.5% Tragacanth, 1% DMSO/20% Encapsin/Saline, or acidified 5% Tragacanth. The suspension process may be aided by the use of a glass homogenizer. For intratracheal administration, the animals are anesthetized with inhaled isoflurane and placed in a supine position, the trachea is intubated with a steel gavage needle (1.5 inch, 22 gauge, small ball) or a Penn-Century Microsprayer Aerosolizer (model IA-IB) and 200 ul of dosing solution is delivered. The animals are visually monitored during the recovery process, which typically occurs within two minutes.
Rats treated with compound or vehicle (15 min-24 hours pretreatment) are exposed to an LPS aerosol (100 ug/ml) for 15 min. Four hours later the rats are euthanized with pentobarbital (100 mg/kg, i.p.) and the airways are lavaged with 5 washes of 5 ml of phosphate buffered saline. The harvested cells are stained (Diffquick) and counted to determine total and differential cell data. In a typical study, macrophages represent 40-70% of the total cells, and polymorphonuclear cells 30-60% of the total cells. Inhibition of neutrophil levels relative to no compound controls is calculated based on the differential counts.
The assay has varying conditions, such as concentration, pretreat time, form of the compound (crystalline, amorphous, salts, micronised), and a wet or dry application of the compound. The data is obtained as % inhibition using a particular concentration and pretreat time.

SMILES | inhibition of neutrophilia
Cc1ccc(C(=O)NC(C)C)cc1-c1nc(N2CCC(N3CCC(C)CC3)CC2)nc2c1CNC(=O)N2c1c(F)cccc1F [Example 70, 3-[8-(2,6-difluorophenyl)-2-(4-methyl-1,4′-bipiperidin-1′-yl)-7-oxo-5,6,7,8-tetrahydropyrimido[4,5-d]pyrimidin-4-yl]-4-methyl-N-(1-methylethyl)benzamide] | statistically significant inhibition
Cc1c(F)cc(C(=O)Nc2ccccc2)cc1-c1nc(NCCN(C)C)nc2c1CNC(=O)N2c1c(F)cccc1F [Example 112, 3-(8-(2,6-difluorophenyl)-2-{[2-(dimethylamino)ethyl]amino}-7-oxo-5,6,7,8-tetrahydropyrimido[4,5-d]pyrimidin-4-yl)-5-fluoro-4-methyl-N-phenylbenzamide] | statistically significant inhibition
CCN(CC)CCCNc1nc(-c2cc(C(=O)Nc3nccs3)ccc2C)c2c(n1)N(c1c(F)cccc1F)C(=O)NC2 [Example 120, 3-[2-{[3-(diethylamino)propyl]amino}-8-(2,6-difluorophenyl)-7-oxo-5,6,7,8-tetrahydropyrimido[4,5-d]pyrimidin-4-yl]-4-methyl-N-1,3-thiazol-2-ylbenzamide] | statistically significant inhibition
Cc1ccc(C(=O)Nc2ccccc2)cc1-c1nc(NCCN(C)C)nc2c1CNC(=O)N2c1c(F)cccc1F [Example 137, 3-(8-(2,6-difluorophenyl)-2-{[2-(dimethylamino)ethyl]amino}-7-oxo-5,6,7,8-tetrahydropyrimido[4,5-d]pyrimidin-4-yl)-4-methyl-N-phenylbenzamide] | statistically significant inhibition
Cc1ccc(C(=O)NC(C)C)cc1-c1nc(N2CCC(N3CCN(C)CC3)CC2)nc2c1CNC(=O)N2c1c(F)cccc1F [Example 72, 3-{8-(2,6-difluorophenyl)-2-[4-(4-methyl-1-piperazinyl)-1-piperidinyl]-7-oxo-5,6,7,8-tetrahydropyrimido[4,5-d]pyrimidin-4-yl}-4-methyl-N-(1-methylethyl)benzamide] | statistically significant inhibition
CCc1ccc(C(=O)Nc2nccs2)cc1-c1nc(NCCN(C)C)nc2c1CNC(=O)N2c1c(F)cccc1F [Example 144, 3-(8-(2,6-difluorophenyl)-2-{[2-(dimethylamino)ethyl]amino}-7-oxo-5,6,7,8-tetrahydropyrimido[4,5-d]pyrimidin-4-yl)-4-ethyl-N-1,3-thiazol-2-ylbenzamide Trilfluoroacetate] | statistically significant inhibition
Cc1ccc(C(=O)Nc2nccs2)cc1-c1nc(NCCCN(C)C)nc2c1CNC(=O)N2c1c(F)cccc1F [Example 119, 3-(8-(2,6-difluorophenyl)-2-{[3-(dimethylamino)propyl]amino}-7-oxo-5,6,7,8-tetrahydropyrimido[4,5-d]pyrimidin-4-yl)-4-methyl-N-1,3-thiazol-2-ylbenzamide] | statistically significant inhibition
Cc1ccc(C(=O)NC(C)C)cc1-c1nc(N(C)CCCN(C)C)nc2c1CNC(=O)N2c1c(F)cccc1F [34(d), 3-{8-(2,6-difluorophenyl)-2-[[3-(dimethylamino)propyl](methyl)amino]-7-oxo-5,6,7,8-tetrahydropyrimido[4,5-d]pyrimidin-4-yl}-4-methyl-N-(1-methylethyl)benzamide] | statistically nonsignificant inhibition
Cc1ccc(C(=O)Nc2ccc(F)cc2)cc1-c1nc(NC2CCN(C)CC2)nc2c1CNC(=O)N2c1c(F)cccc1F [Example 39, 3-{8-(2,6-difluorophenyl)-2-[(1-methyl-4-piperidinyl)amino]-7-oxo-5,6,7,8-tetrahydropyrimido[4,5-d]pyrimidin-4-yl}-N-(4-fluorophenyl)-4-methylbenzamide] | statistically nonsignificant inhibition
Cc1ccc(C(=O)NC(C)C)cc1-c1nc(N(C)CCN(C)C)nc2c1CNC(=O)N2c1c(F)cccc1F [Example 36, 3-{8-(2,6-difluorophenyl)-2-[[2-(dimethylamino)ethyl](methyl)amino]-7-oxo-5,6,7,8-tetrahydropyrimido[4,5-d]pyrimidin-4-yl}-4-methyl-N-(1-methylethyl)benzamide] | statistically significant inhibition
CSc1nc(-c2cc(NC(=O)c3ccsc3)ccc2C)c2c(n1)N(c1c(F)cccc1F)C(=O)NC2 [7(c), N-{3-[8-(2,6-Difluorophenyl)-2-(methylthio)-7-oxo-5,6,7,8-tetrahydropyrimido[4,5-d]pyrimidin-4-yl]-4-methylphenyl}-3-thiophenecarboxamide] | inactive
Cc1ccc(C(=O)Nc2nccs2)cc1-c1nc(NC[C@H](C)O)nc2c1CNC(=O)N2c1c(F)cccc1F [Example 134, 3-(8-(2,6-difluorophenyl)-2-{[(2S)-2-hydroxypropyl]amino}-7-oxo-5,6,7,8-tetrahydropyrimido[4,5-d]pyrimidin-4-yl)-4-methyl-N-1,3-thiazol-2-ylbenzamide] | statistically nonsignificant inhibition
CN(C)CCNc1nc(-c2cccc(C(=O)Nc3ccccc3)c2)c2c(n1)N(c1c(F)cccc1F)C(=O)NC2 [Example 91, 3-(8-(2,6-difluorophenyl)-2-{[2-(dimethylamino)ethyl]amino}-7-oxo-5,6,7,8-tetrahydropyrimido[4,5-d]pyrimidin-4-yl)-N-phenylbenzamide] | statistically significant inhibition
Cc1ccc(C(=O)Nc2ccc(F)cc2)cc1-c1nc(N(C)CCCN(C)C)nc2c1CNC(=O)N2c1c(F)cccc1F [Example 9, 3-{8-(2,6-difluorophenyl)-2-[[3-(dimethylamino)-propyl](methyl)amino]-7-oxo-5,6,7,8-tetrahydropyrimido[4,5-d]pyrimidin-4-yl}-N-(4-fluorophenyl)-4-methylbenzamide] | statistically nonsignificant inhibition
Cc1ccc(C(=O)Nc2ccc(F)cc2)cc1-c1nc(N2CCC(N3CCCCC3)CC2)nc2c1CNC(=O)N2c1c(F)cccc1F [87(b), 3-[2-(1,4′-bipiperidin-1′-yl)-8-(2,6-difluorophenyl)-7-oxo-5,6,7,8-tetrahydropyrimido[4,5-d]pyrimidin-4-yl]-N-(4-fluorophenyl)-4-methylbenzamide] | statistically nonsignificant inhibition

test system: not given; test: not given; settings: not given

melting point | SMILES
155 to 158 °C (dec.) | CNC(=O)c1ccc(C)c(-c2nc(NCCN(C)C)nc3c2CNC(=O)N3c2c(F)cccc2F)c1 [Example 163(c), 3-(8-(2,6-difluorophenyl)-2-{[2-(dimethylamino)ethyl]amino}-7-oxo-5,6,7,8-tetrahydropyrimido[4,5-d]pyrimidin-4-yl)-N,4-dimethylbenzamide]
152 to 154 °C (dec.) | Cc1ccc(C(=O)NCc2ccccc2)cc1-c1nc(NC2CCN(C)CC2)nc2c1CNC(=O)N2c1c(F)cccc1F [Example 22, 3-{8-(2,6-Difluorophenyl)-2-[(1-methyl-4-piperidinyl)amino]-7-oxo-5,6,7,8-tetrahydropyrimido[4,5-d]pyrimidin-4-yl}-4-methyl-N-(phenylmethyl)benzamide]
225 to 228 °C (dec.) | COc1nc(-c2cc(NC(=O)c3ccsc3)ccc2C)c2c(n1)N(c1c(F)cccc1F)C(=O)NC2 [10(e), N-{3-[8-(2,6-difluorophenyl)-2-(methyloxy)-7-oxo-5,6,7,8-tetrahydropyrimido-[4,5-d]pyrimidin-4-yl]-4-methylphenyl}-3-thiophenecarboxamide]
203 to 207 °C (dec.) | CNc1nc(-c2cc(NC(=O)c3ccsc3)ccc2C)c2c(n1)N(c1c(F)cccc1F)C(=O)NC2 [Example 14, N-{3-[8-(2,6-difluorophenyl)-2-(methylamino)-7-oxo-5,6,7,8-tetrahydropyrimido[4,5-d]pyrimidin-4-yl]-4-methylphenyl}-3-thiophenecarboxamide]
125 to 127 °C | CCN(CC)C(=O)c1ccc(C)c(-c2nc(NCCN(C)C)nc3c2CNC(=O)N3c2c(F)cccc2F)c1 [156(c), 3-(8-(2,6-difluorophenyl)-2-{[2-(dimethylamino)ethyl]amino}-7-oxo-5,6,7,8-tetrahydropyrimido[4,5-d]pyrimidin-4-yl)-N,N-diethyl-4-methylbenzamide]
136 to 139 °C (dec.) | CNC(=O)c1ccc(C)c(-c2nc(NCCNC(C)C)nc3c2CNC(=O)N3c2c(F)cccc2F)c1 [Example 167, 3-[8-(2,6-difluorophenyl)-2-({2-[(1-methylethyl)amino]ethyl}amino)-7-oxo-5,6,7,8-tetrahydropyrimido[4,5-d]pyrimidin-4-yl]-N,4-dimethylbenzamide]
199 to 202 °C (dec.) | CCOc1nc(-c2cc(NC(=O)c3ccsc3)ccc2C)c2c(n1)N(c1c(F)cccc1F)C(=O)NC2 [Example 13, N-{3-[8-(2,6-difluorophenyl)-2-(ethyloxy)-7-oxo-5,6,7,8-tetrahydropyrimido[4,5-d]pyrimidin-4-yl]-4-methylphenyl}-3-thiophenecarboxamide]
